# Measured values published in the supplement of paper PMC10331698.
# ± gives the standard deviation of the averaged measurements.
# What was measured:
# Experiment in all cases: level (log10 ratio to DMSO vehicle control); higher = higher biomarker level / cell amount than vehicle control
# Conditions in all cases: in DMSO
# [1] = compound: FC(F)(F)COC(OCC(F)(F)F)OCC(F)(F)F [tris(Trifluoroethoxy)methane]
# Experimental: (§1)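 BioMAP Diversity Plus panel of 12 human primary cell co-culture systems (3C, 4H, LPS, SAg, BT, BF4T, BE3C, CASM3C, HDF3CGF, KF3CT, MyoF, Mphg). Compounds were added 1 h before stimulation and left for 24 h (MyoF 48 h; BT 72 h for soluble read-outs or 6 d for IgG). Biomarkers were read by ELISA, cytotoxicity by SRB, PBMC viability and proliferation by Alamar Blue. Each well value was divided by the mean of 8 DMSO control wells on the same plate and log10 transformed; duplicate blinded samples were tested at 4 concentrations.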
# [2] = compound: OCC(F)(F)C(F)(F)C(F)(F)C(F)(F)C(F)(F)C(F)(F)C(F)(F)C(F)(F)C(F)(F)C(F)(F)C(F)(F)F [11:1 Fluorotelomer alcohol]
# Experimental: as §1
# [3] = compound: O=S(=O)(O)CCC(F)(F)C(F)(F)C(F)(F)C(F)(F)F [4:2 Fluorotelomer sulfonic acid]
# Experimental: as §1
Test System,level (log10) ([1]; 6700 nM),level (log10) ([1]; 20000 nM),level (log10) ([1]; 60000 nM),level (log10) ([2]; 1100 nM),level (log10) ([2]; 3300 nM),level (log10) ([2]; 10000 nM),level (log10) ([3]; 6700 nM),level (log10) ([3]; 20000 nM),level (log10) ([3]; 60000 nM)
3C:CXCL8/IL-8,-0.007 ± 0.016,-0.0085 ± 0.005,0.003 ± 0.013,-0.022 ± 0.027,-0.0245 ± 0.046,0.019 ± 0.082,-0.0175 ± 0.04,-0.011 ± 0.072,0.035 ± 0.1
BF4T:MMP-3,0.014 ± 0.044,0.004 ± 0.041,0.006 ± 0.042,0.008 ± 0.0014,0.009 ± 0.0057,0.0435 ± 0.035,-0.031 ± 0.013,-0.0235 ± 0.018,0.0295 ± 0.069
4H:VEGFR2,-0.0045 ± 0.023,0.006 ± 0.017,0.006 ± 0.021,-0.027 ± 0.023,-0.0135 ± 0.033,-0.008 ± 0.048,-0.103 ± 0.042,-0.0525 ± 0.071,0.025 ± 0.075
LPS:CCL2/MCP-1,0.0085 ± 0.04,0.021 ± 0.042,0.036 ± 0.034,-0.001 ± 0.0028,-0.011 ± 0.011,-0.009 ± 0.035,0.0065 ± 0.028,0.005 ± 0.0042,0.037 ± 0.017
LPS:IL-1alpha,-0.019 ± 0.014,-0.015 ± 0.014,-0.0095 ± 0.035,-0.0655 ± 0.0092,-0.14 ± 0.0035,-0.144 ± 0.012,-0.007 ± 0.035,-0.001 ± 0.03,0.0035 ± 0.018
BF4T:CXCL8/IL-8,0 ± 0.037,0.007 ± 0.021,0.005 ± 0.024,0.001 ± 0.0057,0.0145 ± 0.037,0.028 ± 0.042,-0.001 ± 0.052,0.0065 ± 0.016,0.001 ± 0.033
BT:sIL-6,-0.006 ± 0.037,0.0005 ± 0.0092,-0.0105 ± 0.11,0.209 ± 0.0092,0.116 ± 0.034,0.083 ± 0.085,0.047 ± 0.041,-0.0105 ± 0.011,-0.052 ± 0.13
BE3C:IL-1alpha,0.0075 ± 0.021,-0.006 ± 0.021,0.021 ± 0.0057,-0.011 ± 0.018,-0.0325 ± 0.0021,-0.029 ± 0.02,-0.011 ± 0.0014,-0.011 ± 0.013,0.0045 ± 0.0092
3C:CD87/uPAR,-0.0515 ± 0.063,-0.032 ± 0.027,-0.018 ± 0.04,-0.024 ± 0.023,-0.013 ± 0.024,-0.003 ± 0.011,-0.05 ± 0.047,-0.017 ± 0.069,0.002 ± 0.058
LPS:sTNF-alpha,-0.009 ± 0.017,0.001,0.0105 ± 0.011,0.0075 ± 0.012,-0.0485 ± 0.013,-0.105 ± 0.08,-0.0105 ± 0.011,-0.007 ± 0.0014,-0.0065 ± 0.0035
LPS:sPGE2,-0.0105 ± 0.022,-0.0085 ± 0.0035,0.0185 ± 0.013,0.151 ± 0.075,0.212 ± 0.0064,0.211 ± 0.044,-0.035 ± 0.078,0.025 ± 0.064,0.026 ± 0.0028
3C:SRB,-0.02,-0.0035 ± 0.00071,-0.006 ± 0.02,-0.043 ± 0.0014,-0.115 ± 0.021,-0.116 ± 0.014,-0.0135 ± 0.011,-0.0145 ± 0.0078,-0.0255 ± 0.025
BE3C:CXCL8/IL-8,0.018 ± 0.051,0.0155 ± 0.04,0.0505 ± 0.013,-0.086 ± 0.011,-0.158 ± 0.055,-0.0975 ± 0.042,0.0165 ± 0.023,-0.009 ± 0.0085,0.0175 ± 0.0064
4H:CCL2/MCP-1,-0.017 ± 0.017,-0.017 ± 0.018,0.031 ± 0.054,0.0335 ± 0.033,0.0495 ± 0.00071,0.0835 ± 0.023,0.014 ± 0.0014,-0.0085 ± 0.028,0.019 ± 0.0071
BF4T:uPA,0.001 ± 0.0099,-0.017 ± 0.011,-0.0095 ± 0.00071,0,-0.005 ± 0.0071,0.0015 ± 0.0064,-0.013 ± 0.02,-0.013 ± 0.0085,0.0105 ± 0.0078
LPS:CD141/Thrombomodulin,-0.042 ± 0.042,-0.0385 ± 0.0078,-0.0505 ± 0.0035,-0.0285 ± 0.015,-0.0185 ± 0.012,-0.0035 ± 0.013,0.0215 ± 0.039,0.0345 ± 0.044,0.0755 ± 0.032
BF4T:Keratin 8/18,0.0035 ± 0.032,0.0035 ± 0.021,0.01 ± 0.024,0.0025 ± 0.026,-0.009 ± 0.03,-0.0075 ± 0.025,0.0015 ± 0.005,-0.0195 ± 0.025,0.017 ± 0.024

Test System,level (log10) ([1]; 6700 nM),level (log10) ([1]; 20000 nM),level (log10) ([1]; 60000 nM),level (log10) ([2]; 1100 nM),level (log10) ([2]; 3300 nM),level (log10) ([2]; 10000 nM),level (log10) ([3]; 6700 nM),level (log10) ([3]; 20000 nM),level (log10) ([3]; 60000 nM)
BF4T:CD54/ICAM-1,-0.007 ± 0.017,0 ± 0.038,-0.017 ± 0.017,-0.0125 ± 0.005,-0.015 ± 0.018,-0.0015 ± 0.00071,-0.0085 ± 0.011,-0.0125 ± 0.0092,0.006 ± 0.038
SAg:CD40,0.0005 ± 0.026,-0.0185 ± 0.011,-0.0245 ± 0.0064,-0.038 ± 0.024,-0.068,-0.0685 ± 0.042,-0.006 ± 0.0071,0.0015 ± 0.019,-0.0225 ± 0.039
SAg:PBMC Cytotoxicity,-0.0115 ± 0.0078,0.01 ± 0.017,0.0135 ± 0.022,-0.233 ± 0.016,-0.266 ± 0.02,-0.268 ± 0.076,0.0015 ± 0.013,-0.007 ± 0.031,0.02 ± 0.0014
SAg:CCL2/MCP-1,-0.0215 ± 0.0035,-0.0215 ± 0.0064,0.0105 ± 0.022,0.0095 ± 0.0078,-0.013 ± 0.044,0.0225 ± 0.039,0.007 ± 0.0085,0.0185 ± 0.0035,0.0105 ± 0.013
4H:CD106/VCAM-1,-0.0145 ± 0.0035,-0.0025 ± 0.0078,-0.009 ± 0.0071,0.0285 ± 0.022,0.0115 ± 0.057,0.024 ± 0.038,-0.039 ± 0.037,0.014 ± 0.0057,-0.0035 ± 0.023
SAg:CD38,-0.0135 ± 0.015,-0.011 ± 0.0057,-0.012 ± 0.02,-0.0115 ± 0.084,-0.014 ± 0.073,0.0035 ± 0.042,-0.0135 ± 0.028,-0.0415 ± 0.019,-0.0245 ± 0.005
LPS:SRB,-0.0065 ± 0.0021,-0.0015 ± 0.011,-0.0015 ± 0.0078,-0.029 ± 0.0099,-0.0455 ± 0.0021,-0.036 ± 0.0014,-0.0085 ± 0.0021,-0.003 ± 0.0085,-0.011 ± 0.018
BT:Secreted IgG,0.019 ± 0.079,-0.0135 ± 0.091,0.042 ± 0.014,0.007 ± 0.025,0.0025 ± 0.033,-0.014 ± 0.054,0.006 ± 0.052,0.021 ± 0.061,0.0055 ± 0.054
SAg:CXCL9/MIG,0.0015 ± 0.018,0.011 ± 0.0042,0.014 ± 0.0028,-0.004 ± 0.03,-0.0175 ± 0.035,0.012 ± 0.03,-0.0055 ± 0.013,-0.0075 ± 0.0064,0.0035 ± 0.005
BF4T:MMP-9,0.015 ± 0.061,0.0075 ± 0.049,0.0205 ± 0.033,-0.025 ± 0.03,-0.02 ± 0.0071,-0.03 ± 0.0057,-0.023 ± 0.023,-0.02 ± 0.0028,0.0205 ± 0.033
BF4T:PAI-I,0.0025 ± 0.023,-0.012 ± 0.0042,0.007,-0.003 ± 0.011,-0.003 ± 0.0042,0.002 ± 0.027,-0.0055 ± 0.005,-0.007 ± 0.0071,-0.0035 ± 0.015
BF4T:IL-1alpha,-0.0065 ± 0.013,-0.0115 ± 0.013,0.003 ± 0.0099,-0.016 ± 0.0014,-0.0125 ± 0.013,0.0025 ± 0.0021,-0.0025 ± 0.015,-0.013 ± 0.0028,0.0135 ± 0.029
SAg:Proliferation,-0.012 ± 0.0014,0.013 ± 0.04,0.007 ± 0.013,-0.248 ± 0.083,-0.364 ± 0.13,-0.473 ± 0.35,-0.0615 ± 0.015,0.009 ± 0.054,-0.017 ± 0.041
BT:PBMC Cytotoxicity,0.002 ± 0.033,0.005 ± 0.035,0.006 ± 0.0057,-0.073 ± 0.044,-0.09 ± 0.038,-0.0775 ± 0.019,0.0075 ± 0.023,0 ± 0.0014,0.0435 ± 0.03
BT:sIL-2,-0.0155 ± 0.016,0.0015 ± 0.021,0.029 ± 0.025,0.108 ± 0.058,0.0255 ± 0.083,-0.02 ± 0.073,-0.009 ± 0.059,-0.044 ± 0.037,0.038 ± 0.02
BF4T:CCL26/Eotaxin-3,0.0055 ± 0.025,-0.011 ± 0.0014,0.012 ± 0.0057,-0.012 ± 0.0042,-0.003 ± 0.011,-0.0015 ± 0.0078,-0.002 ± 0.052,-0.0065 ± 0.029,0.056 ± 0.047
